Results as given in ChEMBL document CHEMBL4308841, “Synthesis, in vitro antiproliferative activity, and kinase inhibitory effects of pyrazole-containing diarylureas and diarylamides” (Eur J Med Chem, 2018).

Columns and labels:
Malme-3M [1] = test: Growth inhibition of human MALME-3M cells assessed as cell growth at 1 uM incubated for 48 hrs by sulforhodamine B assay relative to control; assay type: functional; conditions: read-out: Activity
SK-MEL-5 [2] = test: Growth inhibition of human SK-MEL-5 cells assessed as cell growth at 100 uM incubated for 48 hrs by sulforhodamine B assay relative to control; assay type: functional; conditions: SK-MEL-5, 48 h, read-out: Activity
NCI/ADR-RES [3] = test: Growth inhibition of human NCI/ADR-RES cells assessed as cell growth at 0.01 uM incubated for 48 hrs by sulforhodamine B assay relative to control; assay type: functional; conditions: read-out: Activity
RXF 393 = test: Growth inhibition of human RXF393 cells incubated for 48 hrs by sulforhodamine B assay; assay type: functional, cell-based; conditions: RXF 393, 48 h
SR [4] = test: Growth inhibition of human SR cells incubated for 48 hrs by sulforhodamine B assay; assay type: functional, cell-based
SF-539 = test: Growth inhibition of human SF539 cells assessed as cell growth at 100 uM incubated for 48 hrs by sulforhodamine B assay relative to control; assay type: functional; conditions: SF-539, 48 h, read-out: Activity
MDA-MB-468 = test: Growth inhibition of human MDA-MB-468 cells incubated for 48 hrs by sulforhodamine B assay; assay type: functional, cell-based; conditions: MDA-MB-468, 48 h
UACC-62 [5] = test: Growth inhibition of human UACC62 cells incubated for 48 hrs by sulforhodamine B assay; assay type: functional, cell-based; conditions: UACC-62, 48 h
NCI-H23 [6] = test: Growth inhibition of human NCI-H23 cells assessed as cell growth at 100 uM incubated for 48 hrs by sulforhodamine B assay relative to control; assay type: functional; conditions: NCI-H23, 48 h, read-out: Activity
HCT-116 [7] = test: Growth inhibition of human HCT116 cells assessed as cell growth at 0.1 uM incubated for 48 hrs by sulforhodamine B assay relative to control; assay type: functional; conditions: HCT-116, 48 h, read-out: Activity
OVCAR-3 [8] = test: Growth inhibition of human OVCAR3 cells incubated for 48 hrs by sulforhodamine B assay; assay type: functional, cell-based; conditions: OVCAR-3, 48 h
HCT-15 = test: Growth inhibition of human HCT15 cells assessed as cell growth at 0.1 uM incubated for 48 hrs by sulforhodamine B assay relative to control; assay type: functional; conditions: HCT-15, 48 h, read-out: Activity
NCI-H226 = test: Growth inhibition of human NCI-H226 cells assessed as cell growth at 0.01 uM incubated for 48 hrs by sulforhodamine B assay relative to control; assay type: functional; conditions: NCI-H226, 48 h, read-out: Activity
786-0 = test: Growth inhibition of human 786-0 cells incubated for 48 hrs by sulforhodamine B assay; assay type: functional, cell-based; conditions: 786-0, 48 h
OVCAR-5 = test: Growth inhibition of human OVCAR5 cells assessed as cell growth at 100 uM incubated for 48 hrs by sulforhodamine B assay relative to control; assay type: functional; conditions: OVCAR-5, 48 h, read-out: Activity
OVCAR-3 [9] = test: Growth inhibition of human OVCAR3 cells assessed as cell growth at 0.01 uM incubated for 48 hrs by sulforhodamine B assay relative to control; assay type: functional; conditions: OVCAR-3, 48 h, read-out: Activity
SK-MEL-28 [10] = test: Growth inhibition of human SK-MEL-28 cells assessed as cell growth at 100 uM incubated for 48 hrs by sulforhodamine B assay relative to control; assay type: functional; conditions: SK-MEL-28, 48 h, read-out: Activity
T47D = test: Growth inhibition of human T47D cells assessed as cell growth at 0.01 uM incubated for 48 hrs by sulforhodamine B assay relative to control; assay type: functional; conditions: read-out: Activity
Malme-3M [11] = test: Growth inhibition of human MALME-3M cells assessed as cell growth at 100 uM incubated for 48 hrs by sulforhodamine B assay relative to control; assay type: functional; conditions: read-out: Activity
SR [12] = test: Growth inhibition of human SR cells assessed as cell growth at 1 uM incubated for 48 hrs by sulforhodamine B assay relative to control; assay type: functional; conditions: read-out: Activity
SK-MEL-5 [13] = test: Growth inhibition of human SK-MEL-5 cells assessed as cell growth at 0.1 uM incubated for 48 hrs by sulforhodamine B assay relative to control; assay type: functional; conditions: SK-MEL-5, 48 h, read-out: Activity
SK-MEL-2 = test: Growth inhibition of human SK-MEL-2 cells assessed as cell growth at 1 uM incubated for 48 hrs by sulforhodamine B assay relative to control; assay type: functional; conditions: SK-MEL-2, 48 h, read-out: Activity
NCI-H522 = test: Growth inhibition of human NCI-H522 cells assessed as cell growth at 10 uM incubated for 48 hrs by sulforhodamine B assay relative to control; assay type: functional; conditions: NCI-H522, 48 h, read-out: Activity
HCT-116 [14] = test: Growth inhibition of human HCT116 cells incubated for 48 hrs by sulforhodamine B assay; assay type: functional, cell-based; conditions: HCT-116, 48 h
NCI-H23 [15] = test: Growth inhibition of human NCI-H23 cells assessed as cell growth at 1 uM incubated for 48 hrs by sulforhodamine B assay relative to control; assay type: functional; conditions: NCI-H23, 48 h, read-out: Activity
SK-MEL-28 [16] = test: Growth inhibition of human SK-MEL-28 cells assessed as cell growth at 0.1 uM incubated for 48 hrs by sulforhodamine B assay relative to control; assay type: functional; conditions: SK-MEL-28, 48 h, read-out: Activity
NCI/ADR-RES [17] = test: Growth inhibition of human NCI/ADR-RES cells assessed as cell growth at 1 uM incubated for 48 hrs by sulforhodamine B assay relative to control; assay type: functional; conditions: read-out: Activity
UACC-62 [18] = test: Growth inhibition of human UACC62 cells assessed as cell growth at 100 uM incubated for 48 hrs by sulforhodamine B assay relative to control; assay type: functional; conditions: UACC-62, 48 h, read-out: Activity
M14 = test: Growth inhibition of human M14 cells assessed as cell growth at 0.1 uM incubated for 48 hrs by sulforhodamine B assay relative to control; assay type: functional; conditions: M14, 48 h, read-out: Activity
[19] = read-out: LC50 (the source's name)
[20] = read-out: pLC50 (the source's name) (converted)

O=C(Nc1cccc(-n2cc(-c3ccncc3)c(-c3cc(O)cc(Cl)c3)n2)c1)Nc1ccc(Cl)c(C(F)(F)F)c1
growth at 1 µM (Malme-3M [1]): 94%
growth at 100 µM (SK-MEL-5 [2]): -97%
growth at 0.01 µM (NCI/ADR-RES [3]): 96%
LC50 (RXF 393): 12.9 µM
GI50 (RXF 393; read-out: GI50): 1.42 µM
TGI (RXF 393; read-out: TGI): 36.6 µM
GI50 (RXF 393; read-out: pGI50 (converted)): 1.41 µM
TGI (RXF 393; read-out: pTGI (converted)): 3.89 µM
GI50 (SR [4]; read-out: GI50): 2.01 µM
CC50 (SR [4]; [19]): > 100 µM
TGI (SR [4]; read-out: TGI): 51 µM
GI50 (SR [4]; read-out: pGI50 (converted)): 2 µM
CC50 (SR [4]; [20]): > 100 µM
TGI (SR [4]; read-out: pTGI (converted)): 5.13 µM
growth at 100 µM (SF-539): -50%
IC50 (MDA-MB-468): 2.08 µM
GI50 (MDA-MB-468; read-out: GI50): 2.05 µM
CC50 (MDA-MB-468; [19]): > 100 µM
TGI (MDA-MB-468; read-out: TGI): 84.2 µM
GI50 (MDA-MB-468; read-out: pGI50 (converted)): 2.63 µM
CC50 (MDA-MB-468; [20]): > 100 µM
TGI (MDA-MB-468; read-out: pTGI (converted)): 8.51 µM
IC50 (UACC-62 [5]): 2.08 µM
GI50 (UACC-62 [5]; read-out: GI50): 2 µM
CC50 (UACC-62 [5]; [19]): 91.9 µM
TGI (UACC-62 [5]; read-out: TGI): 43.8 µM
GI50 (UACC-62 [5]; read-out: pGI50 (converted)): 2.09 µM
CC50 (UACC-62 [5]; [20]): 9.12 µM
TGI (UACC-62 [5]; read-out: pTGI (converted)): 4.37 µM
growth at 100 µM (NCI-H23 [6]): -55%
growth at 0.1 µM (HCT-116 [7]): 103%
IC50 (OVCAR-3 [8]): 2.34 µM
GI50 (OVCAR-3 [8]; read-out: GI50): 2.34 µM
CC50 (OVCAR-3 [8]; [19]): > 100 µM
TGI (OVCAR-3 [8]; read-out: TGI): 50 µM
GI50 (OVCAR-3 [8]; read-out: pGI50 (converted)): 2.34 µM
CC50 (OVCAR-3 [8]; [20]): > 100 µM
TGI (OVCAR-3 [8]; read-out: pTGI (converted)): 6.61 µM
growth at 0.1 µM (HCT-15): 88%
growth at 0.01 µM (NCI-H226): 97%
GI50 (786-0; read-out: GI50): 1.53 µM
CC50 (786-0; [19]): 5.2 µM
TGI (786-0; read-out: TGI): 44.5 µM
GI50 (786-0; read-out: pGI50 (converted)): 1.82 µM
CC50 (786-0; [20]): 89.1 µM
TGI (786-0; read-out: pTGI (converted)): 4.47 µM
growth at 100 µM (OVCAR-5): -55%
growth at 0.01 µM (OVCAR-3 [9]): 101%
growth at 100 µM (SK-MEL-28 [10]): -89%
growth at 0.01 µM (T47D): 91%
growth at 100 µM (Malme-3M [11]): -91%
growth at 1 µM (SR [12]): 57%
growth at 0.1 µM (SK-MEL-5 [13]): 98%
growth at 1 µM (SK-MEL-2): 104%
growth at 10 µM (NCI-H522): -16%
IC50 (HCT-116 [14]): 1.96 µM
GI50 (HCT-116 [14]; read-out: GI50): 1.96 µM
CC50 (HCT-116 [14]; [19]): 10.7 µM
TGI (HCT-116 [14]; read-out: TGI): 44.7 µM
GI50 (HCT-116 [14]; read-out: pGI50 (converted)): 1.95 µM
CC50 (HCT-116 [14]; [20]): 10.7 µM
TGI (HCT-116 [14]; read-out: pTGI (converted)): 4.47 µM
growth at 1 µM (NCI-H23 [15]): 96%
growth at 0.1 µM (SK-MEL-28 [16]): 100%
growth at 1 µM (NCI/ADR-RES [17]): 97%
growth at 100 µM (UACC-62 [18]): -85%
growth at 0.1 µM (M14): 91%
